Measured values from patent publication US9376433B2, “(AZA-)isoquinolinone derivatives” (MERCK PATENT GMBH, priority 2012, dated 2016).

How the values were obtained:
[1] = biological target: T1, Tankyrase-1 (Homo sapiens, UniProt O95271); experiment: Tankyrase 1 autoparsylation assay (HTRF enzyme assay); assay type: biochemical; conditions: GST-tagged Tankyrase-1 (1023-1327 aa)
T1 construct: GST-tagged Tankyrase-1 (1023-1327 aa)
Procedure: (§1) Biochemical activity testing of Tankyrase 1 and 2: Autoparsylation assay
(§2) The autoparsylation assay is run in two steps: the enzymatic reaction in which GST-tagged Tankyrase-1, resp Tankyrase-2 transferred biotinylated ADP-ribose to itself from biotinylated NAD as co-substrate and the detection reaction where a time resolved FRET between cryptate labelled anti-GST bound to the GST tag of the enzyme and Xlent® labelled-streptavidin bound the biotin-parsylation residue is analysed. The autoparsylation activity was detectable directly via the increase in HTRF signal.
(§3) The autoparsylation assay is performed as 384-well HTRF® (Cisbio, Codolet, France) assay format in Greiner low volume nb 384-well microtiter plates and is used for high throughput screen. 250 nM GST-tagged Tankyrase-1 (1023-1327 aa), respectively about 250 nM GST-tagged Tankyrase-2 (873-1166 aa) and 5 μM bio-NAD (Biolog, Life science Inst., Bremen, Germany) as co-substrate are incubated in a total volume of 5 μl (50 mM HEPES, 4 mM Mg-chloride, 0.05% Pluronic F-68, 1.4 mM DTT, 0.5% DMSO, pH 7.7) in the absence or presence of the test compound (10 dilution concentrations) for 90 min at 30° C. The reaction is stopped by the addition of 1 μl 50 mM EDTA solution. 2 μl of the detection solution (1.6 μM SA-Xlent® (Cisbio, Codolet, France), 7.4 nM Anti-GST-K® (Eu-labelled anti-GST, Cisbio, Codolet, France) in 50 mM HEPES, 800 mM KF, 0.1% BSA, 20 mM EDTA, 0.1% CHAPS, pH 7.0) are added. After 1 h incubation at room temperature the HTRF is measured with an Envision multimode reader (Perkin Elmer LAS Germany GmbH) at excitation wavelength 340 nm (laser mode) and emission wavelengths 615 nm and 665 nm. The ratio of the emission signals is determined. The full value used is the inhibitor-free reaction. The pharmacological zero value used is XAV-939 (Tocris) in a final concentration of 5 μM. The inhibitory values (IC50) are determined using either the program Symyx Assay Explorer® or Condosseo® from GeneData.

[2] = biological target: T2, Tankyrase-2 (Homo sapiens, UniProt Q9H2K2); experiment: Tankyrase 2 autoparsylation assay (HTRF enzyme assay); assay type: biochemical; conditions: GST-tagged Tankyrase-2 (873-1166 aa)
T2 construct: GST-tagged Tankyrase-2 (873-1166 aa)
T2 sequence (Q9H2K2 873-1166): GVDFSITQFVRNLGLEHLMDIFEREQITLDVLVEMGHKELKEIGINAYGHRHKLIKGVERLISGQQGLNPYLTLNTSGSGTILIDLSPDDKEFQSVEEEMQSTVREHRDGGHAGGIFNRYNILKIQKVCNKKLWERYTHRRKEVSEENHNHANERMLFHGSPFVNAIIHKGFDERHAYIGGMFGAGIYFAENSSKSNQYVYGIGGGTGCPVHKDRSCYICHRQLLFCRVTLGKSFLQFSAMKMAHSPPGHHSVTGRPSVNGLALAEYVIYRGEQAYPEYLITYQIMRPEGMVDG
Procedure: as §1, §2, §3

[3] = tested on: tankyrase 1/2; experiment: Cellular inhibition of tankyrase: increase of Axin2 level in DLD1 cells (Luminex); assay type: cell-based; conditions: DLD1 colon carcinoma cells, 24 hours, read-out: EC50 tankyrase 1/2 (cell assay)
Procedure: Measurement of Cellular Inhibition of Tankyrase
Since Tankyrases have been described to modulate cellular level of Axin2 (Huang et al., 2009; Nature) the increase of Axin2 level is used as read-out for determination of cellular inhibition of Tankyrases in a Luminex based assay.
Cells of the colon carcinoma cell line DLD1 are plated in 96 well plates with 1.5×10^4 cells per well. Next day, cells are treated with a serial dilution of test compound in seven steps as triplicates with a final DMSO concentration of 0.3%. After 24 hours, cells are lysed in lysis buffer (20 mM Tris/HCl pH 8.0, 150 mM NaCl, 1% NP40, 10% Glycerol) and lysates are cleared by centrifugation through a 96 well filter plate (0.65 μm). Axin2 protein is isolated from cell lysates by incubation with a monoclonal anti-Axin2 antibody (R&D Systems #MAB6078) that is bound to fluorescent carboxybeads. Then, bound Axin2 is specifically detected with a polyclonal anti-Axin2 antibody (Cell Signaling #2151) and an appropriate PE-fluorescent secondary antibody. The amount of isolated Axin2 protein is determined in a Luminex^200 machine (Luminex Corporation) according to the manufacturer's instruction by counting 100 events per well. Inhibition of Tankyrase by test compounds results in higher levels of Axin2 which directly correlates with an increase of detectable fluorescence. As controls cells are treated with solvent alone (neutral control) and with a Tankyrase reference inhibitor IWR-2 (3E-06 M) which refers as control for maximum increase of Axin2. For analysis, the obtained data are normalized against the untreated solvent control and fitted for determination of the EC50 values using the Assay Explorer software (Accelrys).

[4] = tested on: DLD-1-cancer cells; conditions: DLD-1 cells; Huang et al., 2009, Nature; cited from earlier work
[5] = biological target: T3, TNKS1 (Homo sapiens, UniProt O95271); experiment: TNKS1 activity ELISA (autoparsylation assay); assay type: biochemical; conditions: GST-tagged Tnks-1 (1023-1327 aa), luminescence
T3 construct: GST-tagged Tnks-1 (1023-1327 aa, prepared in-house); made in house
T3 sequence (O95271 1023-1327): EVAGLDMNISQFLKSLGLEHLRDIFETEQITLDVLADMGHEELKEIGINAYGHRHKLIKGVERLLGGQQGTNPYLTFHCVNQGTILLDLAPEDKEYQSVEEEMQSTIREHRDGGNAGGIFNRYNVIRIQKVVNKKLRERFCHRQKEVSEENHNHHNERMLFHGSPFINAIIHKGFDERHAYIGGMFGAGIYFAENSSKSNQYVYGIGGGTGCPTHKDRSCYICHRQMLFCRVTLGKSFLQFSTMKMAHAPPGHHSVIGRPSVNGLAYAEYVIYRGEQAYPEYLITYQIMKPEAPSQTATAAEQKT
Procedure: Description of the TNKS1 and TNKS2 ELISA Assay
Biochemical activity testing of TNKS 1 and 2: activity ELISA (Autoparsylation assay)
For analysis of autoparsylation activity of TNKS 1 and 2 an activity ELISA iss performed: In the first step GST tagged TNKS is captured on a Glutathione coated plate. Then the activity assay with biotinylated NAD is performed in the absence/presence of the compounds. During the enzymatic reaction GST tagged TNKS transfers biotinylated ADP-ribose to itself from biotinylated NAD as co-substrate. For the detection streptavidin-HRP conjugate is added that binds to the biotinylated TNKS and is thereby captured to the plates. The amount of biotinylated resp. autoparsylated TNKS is detected with a luminescence substrate for HRP. The level of the luminescence signal correlats directly with the amount of autoparsylated TNKS and therefore with activity of TNKS.
The acitivity ELISA is performed in 384 well Glutathione coated microtiter plates (Express capture Glutathione coated plate, Biocat, Heidelberg, Germany). The plates are pre-equilibrated with PBS. Then the plates are incubated with 50 μl 20 ng/well GST-tagged Tnks-1 (1023-1327 aa, prepared in-house), respectively GST-tagged Tnks-2 (873-1166 aa, prepared in-house) in assay buffer (50 mM HEPES, 4 mM Mg-chloride, 0.05% Pluronic F-68, 2 mM DTT, pH 7.7) overnight at 4° C. The plates are washed 3 times with PBS-Tween-20. The wells are blocked by incubation at room temperature for 20 minutes with 50 μl blocking buffer (PBS, 0.05% Tween-20, 0.5% BSA). Afterwards the plates are washed 3 times with PBS-Tween-20. The enzymatic reaction is performed in 50 μl reaction solution (50 mM HEPES, 4 mM Mg-chloride, 0.05% Pluronic F-68, 1.4 mM DTT, 0.5% DMSO, pH 7.7) with10 μM bio-NAD (Biolog, Life science Inst., Bremen, Germany) as co-substrate in the absence or presence of the test compound (10 dilution concentrations) for 1 hour at 30° C. The reaction is stopped by 3 times washing with PBS-Tween-20. For the detection 50 μl of 20 ng/μl Streptavidin, HRP conjugate (MoBiTec, Göttingen, Germany) in PBS/0.05% Tween-20/0.01% BSA are added and the plates are incubated for 30 minutes at room temperature. After three times washing with PBS-Tween-20 50 μl of SuperSignal ELISA Femto Maximum sensitivity substrate solution (ThermoFisherScientific (Pierce), Bonn, Germany) are added. Following a 1 minute incubation at room temperature luminescence signals are measured with an Envision multimode reader (Perkin Elmer LAS Germany GmbH) at 700 nm. The full value used is the inhibitor-free reaction. The pharmacological zero value used is XAV-939 (Tocris) in a final concentration of 5 μM. The inhibitory values (IC50) are determined using either the program Symyx Assay Explorer® or Condosseo® from GeneData.

T1 sequence (O95271 1023-1327): as above

Compound | IC50 [1] [µM] | IC50 [2] [µM] | EC50 [3] [µM] | growth of DLD-1-cancer cells [4] | IC50 [5] [µM]
COC(=O)c1ccc(-c2cc3ccccc3c(=O)[nH]2)cc1 [Compound A2, 4-(1-oxo-1,2-dihydro-isoquinolin-3-yl)-benzoic acid methyl ester] | < 0.3 | < 0.3 | 0.3 to 3 | – | –
Oc1nc(-c2ccc(C(F)(F)F)cc2)nc2c1CSCC2 [XAV939] | – | – | – | inhibits growth | –
Cc1ccc2cc(-c3ccc(C(C)(C)O)cc3)[nH]c(=O)c2c1 [Compound A7, 3-[4-(1-hydroxy-1-methyl-ethyl)-phenyl]-7-methyl-2H-isoquinolin-1-one] | 0.3 to 3 | 0.3 to 3 | 0.3 to 3 | – | –
CC(C)(F)c1ccc(-c2cc3ccccc3c(=O)[nH]2)cc1 [Compound A13, 3-[4-(1-fluoro-1-methyl-ethyl)-phenyl]-2H-isoquinolin-1-one] | < 0.3 | 0.3 to 3 | 0.3 to 3 | – | –
O=c1[nH]c(-c2ccc(CO)cc2)cc2ccccc12 [Compound A8, 3-(4-hydroxymethyl-phenyl)-2H-isoquinolin-1-one] | < 0.3 | 0.3 to 3 | < 0.3 | – | –
Cn1cc(-c2ccc(-c3cc4ccc(Cl)cc4c(=O)[nH]3)cc2)cn1 [Compound A32, 7-chloro-3-[4-(1-methyl-1H-pyrazol-4-yl)-phenyl]-2H-isoquinolin-1-one] | < 0.3 | 0.3 to 3 | 0.3 to 3 | – | –
COC(=O)c1ccc(-c2cc3ccc(F)cc3c(=O)[nH]2)cc1 [Compound A4, 4-(7-Fluoro-1-oxo-1,2-dihydro-isoquinolin-3-yl)-benzoic acid methyl ester] | 0.3 to 3 | 0.3 to 3 | 0.3 to 3 | – | –
CC(C)(C)c1ccc(-c2cc3cnccc3c(=O)[nH]2)cc1 [Compound A1, 3-(4-tert-butyl-phenyl)-2H-[2,6]naphthyridin-1-one] | < 0.3 | 0.3 to 3 | < 0.3 | – | < 0.3
CC1(c2ccc(-c3cc4ccc(F)cc4c(=O)[nH]3)cc2)CCCO1 (stereo not drawn) [Compound A21, 7-fluoro-3-[4-(2-methyltetrahydrofuran-2-yl)phenyl]-2H-isoquinolin-1-one] | < 0.3 | 0.3 to 3 | 0.3 to 3 | – | –
CC(C)(O)c1ccc(-c2cc3ccc(Cl)cc3c(=O)[nH]2)cc1 [Compound A25, 7-chloro-3-[4-(1-hydroxy-1-methyl-ethyl)phenyl]-2H-isoquinolin-1-one] | < 0.3 | 0.3 to 3 | 0.3 to 3 | – | –
Cc1ccc(-c2cc3c(C(F)(F)F)cccc3c(=O)[nH]2)cc1 [Compound A30, 3-(p-tolyl)-5-(trifluoromethyl)-2H-isoquinolin-1-one] | 0.3 to 3 | 3 to 50 | – | – | –
Cn1cc(-c2ccc(-c3cc4cnccc4c(=O)[nH]3)cc2)cn1 [Compound A19, 3-[4-(1-Methyl-1H-pyrazol-4-yl)-phenyl]-2H-[2,6]naphthyridin-1-one] | 0.3 to 3 | 0.3 to 3 | – | – | –
